Test system: HIV
Test: Table 1 IC50 of the examples (assay method not given; patent concerns inhibiting HIV replication)
Format: cell-based
Conditions: Human immunodeficiency virus 1

COc1ccc(C(=O)N2CCc3c2cc(C)c([C@H](OC(C)(C)C)C(=O)O)c3-c2cc(C)c3c(c2C)CCCO3)cc1C (atropisomer, axis not shown) [Example 194, (S)-2-(tert-Butoxy)-2-((R)-4-(5,8-dimethylchroman-6-yl)-1-(4-methoxy-3-methylbenzoyl)-6-methylindolin-5-yl)acetic acid]
IC50: 43 nM

Cc1ccc(-c2c3c(cc(C)c2[C@H](OC(C)(C)C)C(=O)O)N(C(=O)c2cc(C)cc(F)c2)CC3)cc1 [Example 32, (S)-2-(tert-Butoxy)-2-(1-(3-fluoro-5-methylbenzov)-6-methyl-4-(p-tolyl)indolin-5-yl)acetic acid]
IC50: 11 nM

Cc1cc2c(c(-c3cc(F)c4c(c3C)CCCO4)c1[C@H](OC(C)(C)C)C(=O)O)CCN2C(=O)c1cccc(F)c1C (atropisomer, axis not shown) [Example 96, (S)-2-(tert-Butoxy)-2-((R)-1-(3-fluoro-2-methylbenzoyl)-4-(8-fluoro-5-methylchroman-6-yl)-6-methylindolin-5-yl)acetic acid]
IC50: 4 nM

Cc1cc2c(c(-c3cc(F)c4c(c3C)CCCO4)c1[C@H](OC(C)(C)C)C(=O)O)CCN2C(=O)c1cccc(Cl)c1C (atropisomer, axis not shown) [Example 66, (S)-2-(tert-Butoxy)-2-((R)-1-(3-chloro-2-methylbenzoyl)-4-(8-fluoro-5-methylchroman-6-yl)-6-methylindolin-5-yl)acetic acid]
IC50: 6 nM

COc1ccc(C)cc1C(=O)N1c2cc(C)c([C@H](OC(C)(C)C)C(=O)O)c(-c3cc(F)c4c(c3C)CCCO4)c2CC1(C)C (atropisomer, axis not shown) [Example 205, (S)-2-(tert-Butoxy)-2-((R)-4-(8-Fluoro-5-methylchroman-6-yl)-1-(2-methoxy-5-methylbenzoyl)-2,2,6-trimethylindolin-5-yl)acetic acid]
IC50: 20 nM

Cc1cc2c(c(-c3cc(F)c4c(c3C)CCCO4)c1[C@H](OC(C)(C)C)C(=O)O)CCN2C(=O)C1CCCC1 (atropisomer, axis not shown) [Example 54, (S)-2-(tert-Butoxy)-2-((R)-1-(cyclopentanecarbonyl)-4-(8-fluoro-5-methylchroman-6-yl)-6-methylindolin-5-yl)acetic acid]
IC50: 12 nM

Cc1cc2c(c(-c3cc(F)c4c(c3C)CCCO4)c1[C@H](OC(C)(C)C)C(=O)O)CCN2C(=O)c1cc(Cl)cc(Cl)c1 (atropisomer, axis not shown) [Example 82, (S)-2-(tert-Butoxy)-2-((R)-1-(3,5-dichlorobenzoyl)-4-(8-fluoro-5-methylchroman-6-yl)-6-methylindolin-5-yl)acetic acid]
IC50: 12 nM

Cc1ccc(C(=O)N2CCc3c2cc(C)c([C@H](OC(C)(C)C)C(=O)O)c3-c2cc(F)c3c(c2C)CCCO3)c(F)c1 (atropisomer, axis not shown) [Example 139, (S)-2-(tert-Butoxy)-2-((R)-1-(2-fluoro-4-methylbenzoyl)-4-(8-fluoro-5-methylchroman-6-yl)-6-methylindolin-5-yl)acetic acid]
IC50: 6 nM

Cc1cc2c(c(-c3cc(F)c4c(c3C)CCCO4)c1[C@H](OC(C)(C)C)C(=O)O)CCN2C(=O)c1ccc(Cl)cc1F (atropisomer, axis not shown) [Example 138, (S)-2-(tert-Butoxy)-2-((R)-1-(4-chloro-2-fluorobenzoyl)-4-(8-fluoro-5-methylchroman-6-yl)-6-methylindolin-5-yl)acetic acid]
IC50: 5 nM

COc1cc(Cl)ccc1C(=O)N1CCc2c1cc(C)c([C@H](OC(C)(C)C)C(=O)O)c2-c1cc(F)c2c(c1C)CCCO2 (atropisomer, axis not shown) [Example 72, (S)-2-(tert-Butoxy)-2-((R)-1-(4-chloro-2-methoxybenzoyl)-4-(8-fluoro-5-methylchroman-6-yl)-6-methylindolin-5-yl)acetic acid]
IC50: 7 nM

Cc1ccc(C(=O)N2CCc3c2cc(C)c([C@H](OC(C)(C)C)C(=O)O)c3-c2cc(F)c3c(c2C)CCCO3)cc1C (atropisomer, axis not shown) [Example 94, (S)-2-(tert-Butoxy)-2-((R)-1-(3,4-dimethylbenzoyl)-4-(8-fluoro-5-methylchroman-6-yl)-6-methylindolin-5-yl)acetic acid]
IC50: 4 nM

COc1cccc(C(=O)N2CCc3c2cc(C)c([C@H](OC(C)(C)C)C(=O)O)c3-c2ccc(C)cc2)c1 [Example 16, (S)-2-(tert-Butoxy)-2-(1-(3-methoxybenzoyl)-6-methyl-4-(p-tolyl)indolin-5-yl)acetic acid]
IC50: 12 nM

Cc1ccc(-c2c3c(cc(C)c2[C@H](OC(C)(C)C)C(=O)O)N(S(=O)(=O)N2CCCCC2)CC3)cc1 [Example 36, (S)-2-(tert-Butoxy)-2-(6-methyl-1-(piperidin-1-ylsulfonyl)-4-(p-tolyl)indolin-5-yl)acetic acid]
IC50: 65 nM

Cc1ccc(C)c(C(=O)N2CCc3c2cc(C)c([C@H](OC(C)(C)C)C(=O)O)c3-c2cc(F)c3c(c2C)CCCO3)c1 (atropisomer, axis not shown) [Example 69, (S)-2-(tert-Butoxy)-2-((R)-1-(2,5-dimethylbenzoyl)-4-(8-fluoro-5-methylchroman-6-yl)-6-methylindolin-5-yl)acetic acid]
IC50: 5 nM

Cc1cc2c(c(-c3cc(F)c4c(c3C)CCCO4)c1[C@H](OC(C)(C)C)C(=O)O)CCN2C(=O)c1ccc(C(F)(F)F)cc1F (atropisomer, axis not shown) [Example 136, (S)-2-(tert-Butoxy)-2-((R)-1-(2-fluoro-4-(trifluoromethyl)benzoyl)-4-(8-fluoro-5-methylchroman-6-yl)-6-methylindolin-5-yl)acetic acid]
IC50: 41 nM

Cc1ccc(-c2c3c(cc(C)c2[C@H](OC(C)(C)C)C(=O)O)N(C(=O)c2ccc(Cl)cc2)CC3)cc1 [Example 22, (S)-2-(tert-Butoxy)-2-(1-(4-chlorobenzoyl)-6-methyl-4-(p-tolyl)indolin-5-yl)acetic acid]
IC50: 11 nM

Cc1cccc(C(=O)N2CCc3c2cc(C)c([C@H](OC(C)(C)C)C(=O)O)c3-c2cc(F)c3c(c2C)CCCO3)c1C (atropisomer, axis not shown) [Example 121, (S)-2-(tert-Butoxy)-2-((R)-1-(2,3-dimethylbenzoyl)-4-(8-fluoro-5-methylchroman-6-yl)-6-methylindolin-5-yl)acetic acid]
IC50: 7 nM

Cc1cc2c(c(-c3cc(F)c4c(c3C)CCCO4)c1[C@H](OC(C)(C)C)C(=O)O)CCN2C(=O)C1CCCc2ccccc21 (stereo partly drawn) [Example 105, (2S)-2-(tert-Butoxy)-2-((4R)-4-(8-fluoro-5-methylchroman-6-yl)-6-methyl-1-(1,2,3,4-tetrahydronaphthalene-1-carbonyl)indolin-5-yl)acetic acid]
IC50: 21 nM

Cc1ccc(-c2c3c(cc(C)c2[C@H](OC(C)(C)C)C(=O)O)N(C(=O)c2ccccc2F)CC3)cc1 [Example 18, (S)-2-(tert-Butoxy)-2-(1-(2-fluorobenzoyl)-6-methyl-4-(p-tolyl)indolin-5-yl)acetic acid]
IC50: 11 nM

Cc1ccc(-c2c3c(cc(C)c2C(OC(C)(C)C)C(=O)O)N(C2CCCCC2)CC3)cc1 (stereo not shown) [Example 4, 2-(tert-Butoxy)-2-(1-cyclohexyl-6-methyl-4-(p-tolyl)indolin-5-yl)acetic acid]
IC50: 7520 nM

Cc1cc2c(c(-c3cc(F)c4c(c3C)CCCO4)c1[C@H](OC(C)(C)C)C(=O)O)CCN2C(=O)c1ccc(Cl)c(C(F)(F)F)c1 (atropisomer, axis not shown) [Example 148, (S)-2-(tert-Butoxy)-2-((R)-1-(4-chloro-3-(trifluoromethyl)benzoyl)-4-(8-fluoro-5-methylchroman-6-yl)-6-methylindolin-5-yl)acetic acid]
IC50: 8 nM

Cc1cc2c(c(-c3cc(F)c4c(c3C)CCCO4)c1[C@H](OC(C)(C)C)C(=O)O)CCN2C(=O)C1CC1 (atropisomer, axis not shown) [Example 132, (S)-2-(tert-Butoxy)-2-((R)-1-(cyclopropanecarbonyl)-4-(8-fluoro-5-methylchroman-6-yl)-6-methylindolin-5-yl)acetic acid]
IC50: 414 nM

Cc1cc2c(c(-c3cc(F)c4c(c3C)CCCO4)c1[C@H](OC(C)(C)C)C(=O)O)CCN2C(=O)c1cc(C(F)(F)F)cc(C(F)(F)F)c1 (atropisomer, axis not shown) [Example 133, (S)-2-((R)-1-(3,5-Bis(trifluoromethyl)benzoyl)-4-(8-fluoro-5-methylchroman-6-yl)-6-methylindolin-5-yl)-2-(tert-butoxy)acetic acid]
IC50: 67 nM

COc1ncccc1C(=O)N1CCc2c1cc(C)c([C@H](OC(C)(C)C)C(=O)O)c2-c1cc(F)c2c(c1C)CCCO2 (atropisomer, axis not shown) [Example 90, (S)-2-(tert-Butoxy)-2-((R)-4-(8-fluoro-5-methylchroman-6-yl)-1-(2-methoxynicotinoyl)-6-methylindolin-5-yl)acetic acid]
IC50: 5 nM

Cc1ccc(-c2c3c(cc(C)c2C(OC(C)(C)C)C(=O)O)N(C(=O)OCc2ccccc2)CCC3)cc1 (stereo not shown) [Example 208, 2-(1-((Benzyloxy)carbonyl)-7-methyl-5-(p-tolyl)-1,2,3,4-tetrahydroquinolin-6-yl)-2-(tert-butoxy)acetic acid]
IC50: 1120 nM

CC(=O)Nc1cccc(C(=O)N2CCc3c2cc(C)c([C@H](OC(C)(C)C)C(=O)O)c3-c2cc(F)c3c(c2C)CCCO3)c1 (atropisomer, axis not shown) [Example 78, (S)-2-((R)-1-(3-Acetamidobenzoyl)-4-(8-fluoro-5-methylchroman-6-yl)-6-methylindolin-5-yl)-2-(tert-butoxy)acetic acid]
IC50: 310 nM

Cc1cc2c(c(-c3cc(F)c4c(c3C)CCCO4)c1[C@H](OC(C)(C)C)C(=O)O)CCN2C(=O)c1ccccc1Cl (atropisomer, axis not shown) [Example 98, (S)-2-(tert-Butoxy)-2-((R)-1-(2-chlorobenzoyl)-4-(8-fluoro-5-methylchroman-6-yl)-6-methylindolin-5-yl)acetic acid]
IC50: 2 nM

Cc1ccc(Cl)c(C(=O)N2CCc3c2cc(C)c([C@H](OC(C)(C)C)C(=O)O)c3-c2cc(F)c3c(c2C)CCCO3)c1 (atropisomer, axis not shown) [Example 165, (S)-2-(tert-Butoxy)-2-((R)-1-(2-chloro-5-methylbenzoyl)-4-(8-fluoro-5-methylchroman-6-yl)-6-methylindolin-5-yl)acetic acid]
IC50: 6 nM
